Marks after values point to notes of the source that are not given here.
Experiments:
human MAO B = target: T1, human MAO B (Homo sapiens, UniProt P27338); assay: Human MAO B inhibition, fluorometric method; format: biochemical; details: mean of two independent experiments, read-out: % of hMAO B Inhibition at 1 µM
T1 sequence (P27338 1-520): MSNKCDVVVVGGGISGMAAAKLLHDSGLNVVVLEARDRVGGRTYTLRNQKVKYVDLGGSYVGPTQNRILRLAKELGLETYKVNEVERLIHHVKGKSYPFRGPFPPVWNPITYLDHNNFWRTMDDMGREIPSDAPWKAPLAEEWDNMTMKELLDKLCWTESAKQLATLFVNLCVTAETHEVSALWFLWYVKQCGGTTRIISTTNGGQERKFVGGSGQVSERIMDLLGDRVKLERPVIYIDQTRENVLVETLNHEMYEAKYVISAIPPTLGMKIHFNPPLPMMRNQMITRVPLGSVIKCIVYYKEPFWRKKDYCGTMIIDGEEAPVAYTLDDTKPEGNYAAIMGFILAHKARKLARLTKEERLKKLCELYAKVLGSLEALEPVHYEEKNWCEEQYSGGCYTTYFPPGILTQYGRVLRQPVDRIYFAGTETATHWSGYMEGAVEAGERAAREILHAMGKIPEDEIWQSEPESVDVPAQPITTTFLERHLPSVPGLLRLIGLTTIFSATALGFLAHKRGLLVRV
Procedure: The compounds were tested twice in duplicates at a concentration of 1 μM by fluorometric method as previously described. Paratyramine (200 μM) was used as a substrate for the enzyme. Safinamide (1 μM; reversible) and rasagiline (1 μM; irreversible) were used as reference inhibitors.

[1] = tested on: carrageenan-induced paw edema in rats; assay: Carrageenan-induced paw edema test; format: in vivo, Wistar rats; details: 20 mg/kg ip; for Change in Edema Volume 1 h / inhibition of edema, first hour: 1 h; for Change in Edema Volume 2 h / inhibition of edema, second hour: 2 h; for Change in Edema Volume 3 h / inhibition of edema, third hour: 3 h
Procedure: The carrageenan test is used to evaluate the anti-inflammatory effect, as the injection of this compound into the hind paw of an animal induces long-lasting edema. The aim of the present study was to evaluate the anti-inflammatory (antiedematous) activity of the compounds tested: 19, 22 and 24. The compounds were administered at a dose of 20 mg/kg of body weight (bw).
The in vivo experiments were carried out on male albino Swiss mice weighing 18–26 g and male Wistar rats weighing 150–180 g. The animals were housed in constant temperature facilities exposed to a 12:12 light-dark cycle and maintained on a standard pellet diet and tap water given ad libitum. The control and experimental groups consisted of 6–8 animals each. The investigated compounds were intraperitoneally (ip) administered in the form of a suspension in 0.5% methylcellulose. Control animals received the equivalent volume of solvent. All procedures were conducted according to the guidelines of ICLAS (International Council on Laboratory Animals Science) and were approved by the Local Ethics Committee of the Jagiellonian University in Kraków.
Rats were divided into four groups, one of them being the control. In order to produce inflammation, 0.1 mL of 1% carrageenan solution in water was injected into the hind paw subplantar tissue of rats, according to the modified method of C. A. Winter and P. Lence. […] Prior to the administration of test substances, paw diameters were measured by dividers and recorded. The investigated compounds were administered at a dose of 20 mg/kg, ip (as a suspension in methylcellulose), prior to carrageenan injection. […] After these administrations, paw diameters were measured at 1, 2 and 3 h. The edema % and edema inhibition % were calculated according to the formulas given below. Edema% = (N′ × 100)/N Edema inhibition% = (N – N′ × 100)/N
N: Paw diameters measured 1, 2 and 3 h after injection of carrageenan to the control group—paw diameters at the beginning.
N′: Paw diameters measured 1, 2 and 3 h after injection of carrageenan to the test groups—paw diameters at the beginning.

human adenosine A1R = target: T2, human adenosine A1R (Homo sapiens, UniProt P30542); assay: Radioligand binding at human adenosine A1 receptor vs. [3H]CCPA; details: human recombinant receptor in CHO cells; read-out: A1R vs. [³H]CCPA Ki ± SEM
T2 construct: expressed in transfected cells; host or cells: CHO cells
T2 sequence (P30542 1-326): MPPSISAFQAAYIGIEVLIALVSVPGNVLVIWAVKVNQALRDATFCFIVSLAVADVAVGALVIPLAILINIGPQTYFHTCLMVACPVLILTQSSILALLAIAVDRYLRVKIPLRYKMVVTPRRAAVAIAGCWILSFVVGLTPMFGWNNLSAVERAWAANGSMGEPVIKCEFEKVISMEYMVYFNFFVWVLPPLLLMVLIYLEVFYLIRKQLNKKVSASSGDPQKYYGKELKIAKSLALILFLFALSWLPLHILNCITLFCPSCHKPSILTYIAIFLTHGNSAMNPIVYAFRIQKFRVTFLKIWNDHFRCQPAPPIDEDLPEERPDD
Procedure: Affinities for adenosine receptors were evaluated in radioligand binding assays as previously described. Human adenosine receptors were stably expressed in CHO cells. The following radioligands were used: [^3H]2-chloro-N^6-cyclopentyladenosine ([^3H]CCPA) for A1R; [^3H]3-(3-hydroxypropyl)-7-methyl-8-(m-methoxystyryl)-1-propargylxanthine ([^3H]MSX-2) for A2AR; [^3H]8-(4-(4-(4-chlorophenyl)piperazine-1-sulfonyl)phenyl)-1-propylxanthine ([^3H]PSB-603) for A2BR; [^3H]phenyl-8-ethyl-4-methyl-(8R)-4,5,7,8-tetrahydro-1H-imidazo [2,1-i]purine-5-one ([^3H]PSB-11) for A3R. Initially, compounds were tested at a concentration of 1 µM. […] At least three independent experiments were performed. Data were analyzed using GraphPad PRISM version 5.0 or higher (Graph Pad, San Diego, CA, USA). Ki were calculated using the Cheng–Prusoff equation.

| inhibition at 1 µM (human MAO B) [%] | Ki (human adenosine A1R) [nM] | Compound | Change in Edema Volume 1 h [1] | inhibition of edema, first hour [1] [%] | Change in Edema Volume 2 h [1] | inhibition of edema, second hour [1] [%] | Change in Edema Volume 3 h [1] | inhibition of edema, third hour [1] [%] |
| --- | --- | --- | --- | --- | --- | --- | --- | --- |
| 7 | 130 ± 34 | C#CCn1c(=O)c2c(nc(NCc3c(F)cccc3Cl)n2C)n(C)c1=O [compound 22, 8-((2-Chloro-6-fluorobenzyl)amino)-3,7-dimethyl-1-(prop-2-yn-1-yl)-3,7-dihydro-1H-purine-2,6-dione] | 0.49 ± 0.08 mL | 37.1 | 0.91 ± 0.05 mL | 18.7 | 0.92 ± 0.06 mL | 30.8 |
| 6 | 407 ± 75 | C#CCn1c(=O)c2c(nc(NCc3ccccc3Cl)n2C)n(C)c1=O [compound 19, 8-((2-Chlorobenzyl)amino)-3,7-dimethyl-1-(prop-2-yn-1-yl)-3,7-dihydro-1H-purine-2,6-dione] | 0.56 ± 0.13 mL | 28.2 | 0.72 ± 0.09 mL | 35.7 | 1.10 ± 0.21 mL | 17.3 |
| 10 | 72 ± 8 | C#CCn1c(=O)c2c(nc(NCc3cccc(Br)c3)n2C)n(C)c1=O [compound 24, 8-((3-Bromobenzyl)amino)-3,7-dimethyl-1-(prop-2-yn-1-yl)-3,7-dihydro-1H-purine-2,6-dione] | 0.38 ± 0.02 ^a mL | 51.2 | 0.63 ± 0.14 ^a mL | 43.8 | 0.69 ± 0.01 ^b mL | 48.1 |
